Series [1] has as its system leukemia cell lines (K562, BV173, Ba/F3 p190, Ba/F3 p210, MYL-R, K562-IMR, and KBM5-STI). Kind of series: Comparison of cytotoxic activity across leukemia cell lines (MTT assay). In kind it is cell-based. The conditions noted are these: Example 3. As for the experimental part:
The proliferation inhibitory action in leukemia cell lines was evaluated using a modified dimethyl-thiazole-diphenyl-tetrazolium (MTT) assay as follows.
The hepatocyte line and leukemia cell lines (K562, BV173, Ba/F3 p190, Ba/F3 p210, MYL-R, K562-IMR, and KBM5-STI) were used in this example. The FA-HP-β-CyD synthesized in Example 1 was used.
The cell viability was evaluated using the trypan blue dye exclusion method. Cell proliferation was evaluated using a Cell Counting Kit-8 (Dojindo, Japan), which is an MTT assay. 2×10^4 of each cell was seeded with 100 μL RPMI1640 medium (Sigma-Aldrich, USA) per well to a flatbottom 96-well plate (Greiner Labortechnik, Hamburg, Germany), and incubation for 72 hours was carried out with exposure to HP-β-CyD and FA-HP-β-CyD at different concentrations (0 mM (control: CT), 0.05 mM, 0.1 mM, 0.25 mM, 0.5 mM, and 1 mM).
According to Table 1, IC50 for FA-HP-β-CyD in the leukemia cell lines (K562, BV173, Ba/F3 p190, Ba/F3 p210, MYL-R, K562-IMR, and KBM5-STI) is shown to be about ⅕ to about 1/20 of that for HP-β-CyD. […] FA-HP-β-CyD is thus shown to have a stronger cytotoxic activity than HP-β-CyD.
A general note: Tetrazolium assays rely on reduction of a dye to a coloured formazan, in cell work by metabolically active cells.

For the next series, the system named is A549. In words: Proliferation inhibitory action on low folate receptor-expressing cells (MTT assay). The format is cell-based, human. The conditions noted are these: A549, 2.5-10 mM, 72 hours (FIG. 3). The procedure:
The proliferation inhibitory action on A549, a low folate receptor-expressing cell, was evaluated as follows.
A human non-small cell lung cancer cell line (A549) was used in this example. The FA-HP-β-CyD synthesized in Example 1 was used.
For cell proliferation, 2×10^4 cells of the […] were seeded with 100 μL DMEM medium (Sigma-Aldrich, USA) per well to a flatbottom 96-well plate (Greiner Labortechnik, Hamburg, Germany), and incubation for 72 hours was carried out with exposure to HP-β-CyD and FA-HP-β-CyD at different concentrations (0 mM (control: CT), 2.5 mM, 5 mM, 7.5 mM, and 10 mM). Evaluation was then carried out using a dimethyl-thiazole-diphenyl-tetrazolium (MTT) assay (Nacalai Tesque, Japan).

The test system of series [2] is BV173. Kind of series: Apoptosis, Annexin V/propidium iodide staining. In kind it is cell-based. The conditions noted are these: BV173, 0.5, 1 and 1.5 mM, 48 hours (FIG. 5). As for the experimental part:
(§1) The apoptosis of cells exposed to FA-HP-β-CyD was evaluated using Annexin V/propidium iodide (PI) staining as follows.
(§2) Leukemia cell lines (K562 and BV173) were used in this example. The FA-HP-β-CyD synthesized in Example 1 was used.
(§3) The apoptosis assay was performed by staining the cells with propidium iodide (PI) and Annexin V (BD Biosciences). The cells were cultured at a cell density of 4×10^5 cells/well on a 6-well plate and were incubated for 48 hours with FA-HP-β-CyD at different concentrations (0 mM (control: CT), 0.5 mM, 1 mM, and 1.5 mM). The cells were then stained with propidium iodide (PI) and Annexin V-APC (BD Biosciences) and analysis was performed using an FACSVerse flow cytometry system (BD Biosciences).

Series [3] has as its system K562. In words: Apoptosis, Annexin V/propidium iodide staining. The format is cell-based. The conditions noted are these: K562, 0.5, 1 and 1.5 mM, 48 hours (FIG. 5). The procedure: as §1, §2, §3
For series [4], the system named is BV173. Kind of series: Induction of autophagosome formation (Cyto-ID Autophagy Detection Kit). The conditions noted are these: BV173, 1 mM or 5 mM, 2 hours (FIG. 7). The format is cell-based. The procedure: (§4) The induction of autophagosome formation by FA-HP-β-CyD was evaluated as follows.
as §2
(§5) The cells were cultured at a cell density of 4×10^5 cells/well on a 6-well plate and were treated for 2 hours with 1 mM or 5 mM HP-β-CyD or FA-HP-β-CyD, and the cells were incubated. This was followed by use of a Cyto-ID (registered trademark) Autophagy Detection Kit (Enzo Life Sciences, USA) and the use of an Axio Imager.M2 fluorescence microscope+an ApoTome.2 (Zeiss) for cell observation.

Series [5] deals with K562. The description is as above. In kind it is cell-based. The conditions noted are these: K562, 1 mM or 5 mM, 2 hours (FIG. 7). The procedure:
as §4, §2, §5

Series [6] has as its system EGFP+Ba/F3 BCR-ABLWT cells. In words: Survival extension in a BCR-ABL leukemia mouse model. In kind it is in vivo, nude mice. The conditions noted are these: 15 mM (249 mg/kg) FA-HP-β-CyD vs 150 mM (2086.5 mg/kg) HP-β-CyD, intraperitoneally twice a day for 20 days (FIG. 10). As for the experimental part: The effect due to FA-HP-β-CyD on the extension of survival in a BCR-ABL leukemia mouse model was evaluated as follows.
The FA-HP-β-CyD synthesized in Example 1 was used in this example.
EGFP+Ba/F3 BCR-ABLWT cells (1×10^6 cells) were transplanted into 6-week-old nude mice. Three days after transplantation, 200 μL vehicle (n=10), 150 mM (2086.5 mg/kg) HP-β-CyD (n=10), 15 mM (249 mg/kg) FA-HP-β-CyD (n=10), or […] (200 mg/kg) imatinib (n=10) was injected intraperitoneally twice a day for 20 days. The survival time was monitored daily. The survival data were analyzed using a log-rank nonparametric test and are reported as Kaplan-Meier survival curves.
Significant difference was determined as follows. That is, the data were analyzed using a two-sided Student's t-test without a comparison table. A value of P<0.05 was considered to indicate a significant difference.

The values that follow come from patent publication US20250213603A1, “PHARMACEUTICAL COMPOSITION FOR TREATING CANCER” (SAGA UNIVERSITY, priority 2021, published 2025).

Entries after “also recorded” stand apart in the source; their conditions may differ.

As to “folic acid-appended hydroxypropyl-β-cyclodextrin [FA-HP-β-CyD]”, the “amount giving the equivalent anti-leukemia action relative to un-appended HP-β-CyD” value in series [1] was “approximately one-tenth the amount”. Further, in the series with A549, the “cytotoxic / antitumor activity on A549 low folate receptor-expressing cells” value was “does not exhibit an antitumor activity”. Besides, the apoptosis induction entry in the series with BV173 [2] and in the series with K562 [3] was “induce apoptosis in a concentration dependent manner” each time. Further, the “autophagosome membrane protein LC3B” value with BV173 [4] and in the series with K562 [5] was “increase in a concentration dependent manner” throughout. In series [6], the survival time extension entry is “same survival time extension at one-tenth the amount of HP-β-CyD; also recorded: significant extension of the survival time”.
